The values below come from ChEMBL document CHEMBL1138798, “A docking score function for estimating ligand-protein interactions: application to acetylcholinesterase inhibition” (J Med Chem, 2004).

Usually IC50 stands for the concentration that inhibits the measured activity by half. A low value points to higher potency. Broadly, the Ki is the equilibrium dissociation constant of an inhibitor or competing ligand from its target.

In experiment [1] the target is T1, Acetylcholinesterase (Homo sapiens, UniProt P22303).
Description: Inhibitory activity against Acetylcholinesterase enzyme using human AChE assay
In experiment [2] the target is T1, Acetylcholinesterase. This is another data set of the same source.
Description: Binding affinity towards Acetylcholinesterase

T1 sequence (P22303 whole entry): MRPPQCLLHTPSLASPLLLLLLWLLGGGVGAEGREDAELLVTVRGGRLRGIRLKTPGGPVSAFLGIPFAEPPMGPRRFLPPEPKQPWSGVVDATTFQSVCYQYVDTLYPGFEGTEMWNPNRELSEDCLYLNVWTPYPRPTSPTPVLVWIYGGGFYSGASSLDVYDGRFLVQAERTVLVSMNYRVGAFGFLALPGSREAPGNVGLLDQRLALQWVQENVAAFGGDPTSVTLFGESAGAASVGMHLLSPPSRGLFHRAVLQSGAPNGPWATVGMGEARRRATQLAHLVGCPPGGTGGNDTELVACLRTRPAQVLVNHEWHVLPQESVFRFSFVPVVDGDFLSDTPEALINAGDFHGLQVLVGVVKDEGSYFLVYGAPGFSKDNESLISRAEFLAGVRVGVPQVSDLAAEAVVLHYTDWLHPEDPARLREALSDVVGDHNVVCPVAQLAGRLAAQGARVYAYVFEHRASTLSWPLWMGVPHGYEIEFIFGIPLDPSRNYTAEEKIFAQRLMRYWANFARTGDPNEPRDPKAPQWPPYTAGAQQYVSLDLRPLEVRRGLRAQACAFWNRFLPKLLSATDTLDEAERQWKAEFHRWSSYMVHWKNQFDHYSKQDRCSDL

Turning to `COc1cc2c(cc1OC)C(=O)C(C1CC[N+](C)(Cc3ccccc3)CC1)=C2` (stereo unspecified), the midpoint of inhibition against Acetylcholinesterase [1], the IC50, lay at 250 nM. On Acetylcholinesterase [2], this compound showed an inhibitory constant (Ki) of 251 nM.

`COc1cc2cc(C(=O)C3CC[N+](C)(Cc4ccccc4)CCC3OC)sc2cc1OC` (stereo unspecified) had an IC50 against Acetylcholinesterase [1] of 120 nM. Further, affinity on Acetylcholinesterase [2] was put at a Ki of 120 nM.

As to `COc1cc2c(cc1OC)SC(C(=O)CC1C=CC[N+](C)(Cc3ccccc3)CC1)C2` (stereo unspecified), the IC50 at Acetylcholinesterase [1] was 750 nM. Besides, affinity on Acetylcholinesterase [2] was put at a Ki of 759 nM.

With `COc1cc2cc(C(=O)C3CCC[N+](C)(Cc4ccccc4)CC3)sc2cc1OC` (stereo unspecified), the IC50 against Acetylcholinesterase [1] stood at 8 nM. The compound further gave a Ki on Acetylcholinesterase [2] of 7.94 nM.

Compound `CCOCC[n+]1ccc(CCC(=O)C2Cc3cc(OC)c(OC)cc3S2)cc1` (stereo unspecified) gave an IC50 on Acetylcholinesterase [1] of 7 nM. Besides, the Ki at Acetylcholinesterase [2] was 7.08 nM.

`CCC[n+]1ccc(CCC(=O)C2Cc3cc(OC)c(OC)cc3S2)cc1` (stereo unspecified): the IC50 against Acetylcholinesterase [1] turned out to be 2570 nM. The compound further had an inhibition constant Ki on Acetylcholinesterase [2] of 2570 nM.

`COc1cc2c(cc1OC)SC(CC1CC[N+](C)(Cc3ccccc3)CC1)C2` (stereo unspecified): at Acetylcholinesterase [1], 30000 nM corresponded to half-maximal inhibition (IC50). For the same compound, the Ki at Acetylcholinesterase [2] was 30200 nM.

`COc1cc2c(cc1OC)SC(C(=O)CC(O)C1CC[N+](C)(Cc3ccccc3)CC1)C2` (stereo unspecified) yielded a half-maximal inhibitory concentration (IC50) against Acetylcholinesterase [1] of 190 nM. Further, the Ki at Acetylcholinesterase [2] is 191 nM.

In the case of `COc1cc2cc(C3CC[N+](C)(Cc4ccccc4)CC3O)sc2cc1OC` (stereo unspecified), half-maximal inhibition at Acetylcholinesterase [1] (IC50) was put at 19600 nM. Further, on Acetylcholinesterase [2], the Ki is 19500 nM.

In turn, `COc1cc2c(cc1OC)SC(C(=O)CCc1cc[n+](Cc3ccc(F)cc3)cc1)C2` (stereo unspecified) returned an IC50 against Acetylcholinesterase [1] of 2.6 nM. At Acetylcholinesterase [2], this compound had a Ki of 2.57 nM.

`COc1cc2cc(C(=O)C3=CC[N+](C)(Cc4ccccc4)CC3)sc2cc1OC` (stereo unspecified) had an IC50 on Acetylcholinesterase [1] of 520 nM. In addition, the affinity at Acetylcholinesterase [2], expressed as Ki, was 525 nM.

`COc1cc2cc(C(=O)C3CCC[N+](C)(CC#N)CC3)sc2cc1OC` (stereo unspecified) returned an IC50 against Acetylcholinesterase [1] of 1000 nM. The compound also had a Ki at Acetylcholinesterase [2] of 1000 nM.

On to `COC(=O)C[N+]1(C)CCC(CCC(=O)C2Cc3cc(OC)c(OC)cc3S2)CC1` (stereo unspecified), for which, on Acetylcholinesterase [1], the IC50 stood at 54 nM. This compound showed a Ki at Acetylcholinesterase [2] of 53.7 nM.

Compound `CC[n+]1ccc(CCC(=O)C2Cc3cc(OC)c(OC)cc3S2)cc1` (stereo unspecified) registered an IC50 at Acetylcholinesterase [1] of 280 nM. Besides, the Ki on Acetylcholinesterase [2] is 282 nM.

Compound `COc1cc2onc(CCC3CCN(Cc4ccccc4)CC3)c2cc1C` yielded a 50% inhibitory concentration (IC50) against Acetylcholinesterase [1] of 5.8 nM. This compound also gave a Ki at Acetylcholinesterase [2] of 5.75 nM.

On to `C=CC[n+]1ccc(CCC(=O)C2Cc3cc(OC)c(OC)cc3S2)cc1` (stereo unspecified), for which the IC50 against Acetylcholinesterase [1] was 6.27 nM. This compound gave an inhibitory constant (Ki) on Acetylcholinesterase [2] of 219 nM.

Compound `COc1cc2c(cc1OC)SC(C(=O)CCc1cc[n+](CC3CC3)cc1)C2` (stereo unspecified) yielded an IC50 at Acetylcholinesterase [1] of 110 nM. Further, the Ki at Acetylcholinesterase [2] was 110 nM.

`COCC[n+]1ccc(CCC(=O)C2Cc3cc(OC)c(OC)cc3S2)cc1` (stereo unspecified) displayed an IC50 against Acetylcholinesterase [1] of 30 nM. At Acetylcholinesterase [2], the Ki is 30.2 nM.

`COc1cc2cc(C3=CC[N+](C)(Cc4ccccc4)CC3)sc2cc1OC` (stereo unspecified) displayed an IC50 against Acetylcholinesterase [1] of 2670 nM. This compound also had an inhibitory constant (Ki) at Acetylcholinesterase [2] of 2690 nM.

On Acetylcholinesterase [1], `C[N+]1(Cc2ccccc2)CCC(CCC(=O)c2ccc3c(c2)OCO3)CC1` (stereo unspecified) displayed an IC50 of 41.5 nM. The Ki at Acetylcholinesterase [2] was 41.7 nM.

At Acetylcholinesterase [2], `C[N+]1(Cc2ccccc2)CCC(CCC(=O)c2ccc3c(c2)CCCCO3)CC1` (stereo unspecified) had a Ki of 138 nM.

With `O=C1Cc2cc3onc(CCC4CCN(Cc5ccccc5)CC4)c3cc2N1`, at Acetylcholinesterase [2], affinity was put at a Ki of 0.955 nM.

For `O=C1CCc2cc3c(CCC4CCN(Cc5ccccc5)CC4)noc3cc2N1`, the Ki at Acetylcholinesterase [2] is 0.575 nM.

Regarding `Brc1ccc2c(CCC3CCN(Cc4ccccc4)CC3)noc2c1`, the Ki at Acetylcholinesterase [2] was 50.1 nM.

Compound `COc1cc2cc(C(=O)C3CC[N+](C)(Cc4ccccc4)CCC3O)sc2cc1OC` (stereo unspecified) displayed an IC50 on Acetylcholinesterase [1] of 43 nM. Moreover, the inhibitory constant (Ki) at Acetylcholinesterase [2] is 42.7 nM.

Compound `COc1cc2cc(C(=O)CC3CCCC[N+](C)(Cc4ccccc4)CC3)sc2cc1OC` (stereo unspecified) showed an IC50 on Acetylcholinesterase [1] of 110 nM. This compound gave a Ki on Acetylcholinesterase [2] of 110 nM.

Take `COc1cc2c(cc1OC)SC(C(=O)CCc1cc[n+](Cc3ccsc3)cc1)C2` (stereo unspecified): on Acetylcholinesterase [1], half-maximal inhibition (IC50) was put at 6 nM. On Acetylcholinesterase [2], the inhibition constant (Ki) was 6.03 nM.

`O=C(CCc1cc[n+](Cc2ccccc2)cc1)c1ccc2c(c1)OCO2` showed an IC50 at Acetylcholinesterase [1] of 240 nM. The compound further showed a Ki at Acetylcholinesterase [2] of 240 nM.

`COCC[N+]1(C)CCCC(C(=O)c2cc3cc(OC)c(OC)cc3s2)CC1` (stereo unspecified): 53 nM corresponded to half-maximal inhibition against Acetylcholinesterase [1] (IC50). The inhibition constant Ki on Acetylcholinesterase [2] was 52.5 nM.

`COc1cc2cc(C(=O)C3CCC[N+](C)(CC(=O)OC(C)(C)C)CC3)sc2cc1OC` (stereo unspecified) registered an IC50 against Acetylcholinesterase [1] of 79 nM. On Acetylcholinesterase [2], this compound had a Ki of 79.4 nM.

Regarding `COc1cc2c(cc1OC)SC(C(=O)CCc1cc[n+](CC3CCC3)cc1)C2` (stereo unspecified), the midpoint of inhibition against Acetylcholinesterase [1], the IC50, lay at 40 nM. At Acetylcholinesterase [2], this compound gave a Ki of 39.8 nM.

With `COc1cc2c(cc1OC)SC(C(=O)CCc1cc[n+](C)cc1)C2` (stereo unspecified), the IC50 against Acetylcholinesterase [1] was 900 nM. At Acetylcholinesterase [2], this compound gave a Ki of 891 nM.

Turning to `CN1C(=O)Cc2cc3onc(CCC4CCN(Cc5ccccc5)CC4)c3cc21`, at Acetylcholinesterase [1], the IC50 was 0.48 nM. Besides, affinity at Acetylcholinesterase [2] was put at a Ki of 0.479 nM.

`COc1cc2cc(C(=O)CCC3CC[N+](C)(Cc4ccccc4)CC3)n(C)c2cc1OC` (stereo unspecified) had a Ki on Acetylcholinesterase [2] of 120 nM.

On Acetylcholinesterase [2], `Cc1ccc2onc(CCC3CCN(Cc4ccccc4)CC3)c2c1` gave a Ki of 7.76 nM.

As to `COc1cc2c(cc1OC)SC(C(=O)CCc1cc[n+](Cc3coc([N+](=O)[O-])c3)cc1)C2` (stereo unspecified), half-maximal inhibition against Acetylcholinesterase [1] (IC50) was put at 4.5 nM. The compound also gave a Ki on Acetylcholinesterase [2] of 4.47 nM.

Consider `COc1cc2cc(C(=O)C3CCC[N+](C)(Cc4ccc([N+](=O)[O-])o4)CC3)sc2cc1OC` (stereo unspecified), for which, on Acetylcholinesterase [1], the IC50 was 32 nM. The compound further gave a Ki at Acetylcholinesterase [2] of 32.4 nM.

On Acetylcholinesterase [2], `C[N+]1(Cc2ccccc2)CCC(CCC(=O)c2ccc3c(c2)OCCO3)CC1` (stereo unspecified) showed a Ki of 100 nM.

On Acetylcholinesterase [2], `Cc1cc(C(=O)CCC2CC[N+](C)(Cc3ccccc3)CC2)nn1-c1ccccc1` (stereo unspecified) showed a Ki of 21.9 nM.

As to `COc1ccc2cc(C(=O)CCC3CC[N+](C)(Cc4ccccc4)CC3)ccc2c1` (stereo unspecified), the Ki at Acetylcholinesterase [2] is 50.1 nM.

Compound `CC(=O)Nc1ccc2c(CCC3CCN(Cc4ccccc4)CC3)noc2c1` showed a Ki on Acetylcholinesterase [2] of 2.82 nM.

On Acetylcholinesterase [2], `N#Cc1ccc2c(CCC3CCN(Cc4ccccc4)CC3)noc2c1` gave a Ki of 100 nM.

At Acetylcholinesterase [2], `O=S(=O)(Nc1ccc2c(CCC3CCN(Cc4ccccc4)CC3)noc2c1)c1ccccc1` had a Ki of 14.1 nM.

Compound `O=C1Cc2c(ccc3c(CCC4CCN(Cc5ccccc5)CC4)noc23)N1` showed an inhibition constant (Ki) at Acetylcholinesterase [2] of 3.63 nM. This Ki lies about 3.9-fold lower than the previous one.

For the compound `O=C1Cc2cc3c(CCC4CCN(Cc5ccccc5)CC4)noc3cc2N1` [ICOPEZIL], on Acetylcholinesterase [2], the Ki was 0.331 nM. Against the preceding compound, the Ki is about 11-fold lower.
